14 compounds from patent US11918568B2, “Fused ring compound having urea structure” (DAIICHI SANKYO COMPANY, LIMITED, priority 2018, dated 2024) can be followed below.

For assay [1], the system named is C57BL/6N DIO mice. Description: Energy expenditure in DIO mouse (oxygen consumption). Format: in vivo. The note with it: 100 mg/kg orally once a day, vs vehicle group. As to the method:
48-week-old male C57BL/6N DIO mice were divided into 2 groups each involving 4 mice. Each mouse was acclimatized for 3 d under individual housing and then fasted overnight. […] Oxygen consumptions (VO2) and carbon dioxide outputs (VCO2) were measured for approximately 73 h (approximately 9 h under fasting (on the order of 9:00 to 18:00) and approximately 64 h under feeding (on the order of 18:00 to 10:00 of two days later)) using Comprehensive Lab Animal Monitoring System (Columbus Instruments International Corp.).

Assay [2] deals with C57BL/6N mice. Description: NAD+ level in retina (normal mouse). The note with it: normal C57BL/6N mice, 30 mg/kg orally, 4 h after administration, LC/MS. In kind it is in vivo. The procedure: 4 h after the administration, each mouse was sacrificed by exanguination. The retina was harvested from both eyes. The retina (4 eye pools per sample) was homogenized with a 100-fold amount of 2 M perchloric acid per retinal tissue weight. Then, the samples were centrifuged and the supernatant was neutralized with 5 M […]. After removal of potassium perchlorate, the NAD^+ concentration in the supernatant sample was measured using LC/MS.

Assay [3] relates to C57BL/6N DIO mice. Description: Tissue NAD+ level in diet-induced obese (DIO) mice. The conditions noted are these: 30 or 100 mg/kg orally, 24 h after administration, LC/MS. In kind it is in vivo, mouse. The procedure:
(§1) 24 h after the administration, each mouse was sacrificed by exsanguination. The liver, gastrocnemius, soleus, and brown adipose tissues were harvested. Each tissue was homogenized with a 10- or 100-fold amount of 2 M perchloric acid per its weight. Then, the samples were centrifuged and the supernatant was neutralized with 5 M […]. After removal of potassium perchlorate, the NAD^+ concentration in the supernatant of sample was measured using LC/MS.

Assay [4] relates to C57BL/6N mice. As to the kind of experiment: Tissue NAD+ level in normal mice. In kind it is in vivo, mouse. The note with it: normal C57BL/6N mice, 30 or 100 mg/kg orally, 24 h after administration, LC/MS. The procedure: as §1
Assay [5] relates to C57BL/6N DIO mice. Description: Tissue NAD+ level in DIO mouse - 2 (major tissues). In kind it is in vivo. The note with it: 30 mg/kg orally, 24 h after administration, LC/MS. The procedure:
24 h after the administration, each mouse was sacrificed by exanguination. The heart, kidney, spleen, lung, and white adipose tissues were harvested. For a control, the same organs as above were harvested from 8-week-old male C57BL/6N mice. Each tissue was homogenized with a 10- or 100-fold amount of 2 M perchloric acid per its weight. Then, the samples were centrifuged and the supernatant was neutralized with 5 M […]. After removal of potassium perchlorate, the NAD^+ concentration in the supernatant of sample was measured using LC/MS.

A further assay deals with human NAMPT enzyme (Homo sapiens (Human), UniProt P43490). Description: NAMPT enzyme activating effect (in vitro cell-free enzyme assay). Format: biochemical. The note with it: 2 ng/mL human NAMPT enzyme, 1-h incubation at 25° C., fluorescence of NMN derivative. As to the method:
The NAMPT enzyme assay was conducted in accordance with the method of Formentini et al. […] Hereinafter, the procedures will be briefly described. The NAMPT enzyme reaction was carried out using polypropylene 384 well V shaped black plate (Greiner Bio One International GmbH). […] Then, 22 μL of 88% formic acid was added and the mixture was further incubated for 30 min in the dark. The NAMPT enzyme activity was calculated as the difference between fluorescence intensity (Ex 380 nm/Em 450 nm) from the reaction of a test compound treatment group and fluorescence intensity from control reaction free from the NAMPT enzyme. [NAMPT enzyme activity]=[Fluorescence intensity of the test substance treatment group]−[Mean fluorescence intensity of the control reaction free from the NAMPT enzyme] EC50 value of each compound was calculated from the enzyme activities of the compound at various concentrations by using GraphPad Prism software (GraphPad Software) (Table 1)

Assay [6] has as its system C57BL/6N DIO mice. Description: Anti-obesity effect (DIO mouse, free feeding). In kind it is in vivo. The note with it: DIO mice freely fed high-fat diet, 30 mg/kg orally once a day for 3 wk, vs vehicle group. An excerpt: 45-week-old male C57BL/6N DIO mice were each acclimatized for 1 wk under individual housing. Then, the mice were divided into 2 groups each involving 6 mice with their weights, amounts of weight change, and food intakes during the acclimatization period as indexes. Each mouse was freely fed a purified high-fat diet (D12451) for 3 wk under individual rearing. […] The weight was compared between the test groups.

Another assay deals with HEK293A cells. As to the kind of experiment: Effect of NAMPT activator on the intracellular NAD+ level (in vitro cell-based assay). The conditions noted are these: HEK293-A, 3 h culture with compound, NAD+/NADH-Glo assay, read-out: EC50 (intracellular NAD+ content). As to the method: HEK293A cells were cultured in Dulbecco's Modified Eagle Medium (DMEM (high glucose)) containing 10% fetal bovine serum (FBS), non-essential amino acid (NEAA), and antibiotic-antimycotic [reaction medium]. On the day before the test, HEK293A cells were inoculated at a ratio of 3.0×10^4 cells/80 μL to 96 well poly-D-lysine coated plate and cultured overnight in a CO2 incubator.
On the day of the test, each test compound diluted with reaction medium to a concentration of 5 times the final concentration was added at a ratio of 20 μL/well, and the cells were further cultured for 3 h. After removal of the medium, the cells were lysed in 50 μL/well of Bicarbonate Base Buffer (100 mM sodium carbonate, 20 mM sodium bicarbonate, 100 mM nicotinamide, 20 mM Triton X-100) containing 1% dodecyl trimethyl-ammonium bromide (DTAB). The NAD^+ content in the cell extract was measured using NAD^+/NADH-Glo assay kit according to the manufacturer's instructions. Hereinafter, the procedures will be briefly described. 20 μL of the lysate was separated, and 10 μL of 0.4 N HCL was added thereto, followed by incubation at 60° C. for 15 min and subsequently at 25° C. for 10 min. The mixture was neutralized by the addition of 10 μL of 0.5 M Trizma base solution and then diluted 10-fold with distilled water. 15 μL of the diluted sample was mixed with an equal amount (15 μL) of NAD^+/NADH-Glo reagent in 384 well black plate, and the mixture was incubated for 30 min in the dark. Then, chemiluminescence intensity was measured.
EC50 value of each compound was calculated from the calculated values of the compound at various concentrations using GraphPad Prism software (Table 2).

A further assay concerns WKY rats. The note with it: 5 mg/kg intraperitoneally 0.5 h before Main FST, vs vehicle control.

“Also recorded” adds a separate entry of the source.

human NAMPT enzyme, sequence (P43490 whole entry): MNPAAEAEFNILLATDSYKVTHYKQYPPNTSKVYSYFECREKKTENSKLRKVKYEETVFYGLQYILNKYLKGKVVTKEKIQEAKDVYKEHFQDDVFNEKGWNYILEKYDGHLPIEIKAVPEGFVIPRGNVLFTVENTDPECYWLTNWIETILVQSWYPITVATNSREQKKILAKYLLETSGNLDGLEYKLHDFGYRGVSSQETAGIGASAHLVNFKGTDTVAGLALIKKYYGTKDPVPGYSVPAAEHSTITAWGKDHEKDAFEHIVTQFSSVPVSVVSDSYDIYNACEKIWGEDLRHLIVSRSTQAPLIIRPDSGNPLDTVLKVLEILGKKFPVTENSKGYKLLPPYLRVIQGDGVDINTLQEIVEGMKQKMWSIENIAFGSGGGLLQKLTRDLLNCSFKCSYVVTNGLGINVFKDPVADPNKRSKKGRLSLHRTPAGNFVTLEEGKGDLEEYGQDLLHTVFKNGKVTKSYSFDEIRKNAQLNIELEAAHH

One may read the EC50 as the concentration giving half of the maximal effect. Turning to `O=C(NCc1ccncc1)Nc1ccc2nc(-c3ccccc3)oc2c1` [Example 2, N-(2-Phenyl-1,3-benzoxazol-6-yl)-N′-[(pyridin-4-yl)methyl]urea], in the assay on C57BL/6N DIO mice [1], the “oxygen consumption (VO2) per weight” value is “increased an oxygen consumption per weight; also recorded: increases oxygen consumption”. Moreover, the “NAD+ levels in retina” value in the assay on C57BL/6N mice [2] is recorded as “NAD^+ levels were increased; also recorded: increases NAD^+ levels”. Also, the “NAD+ levels in liver, gastrocnemius, soleus, and brown adipose tissues” value in the assay on C57BL/6N DIO mice [3] and in the assay with C57BL/6N mice [4] was “increases NAD^+ levels” throughout. Besides, the “NAD+ levels in major tissues (heart, kidney, spleen, lung, white adipose tissue)” value in the assay with C57BL/6N DIO mice [5] is given as “NAD^+ levels were increased; also recorded: increases NAD^+ levels”. Further, the EC50 on human NAMPT enzyme turned out to be 0.05 µM; with HEK293A cells it was 0.19 µM. Moreover, in the assay on C57BL/6N DIO mice [6], the body weight change result is “weight lowering effect; also recorded: decreases body weights”.

Regarding `CNC1(c2ccccc2Cl)CCCCC1=O` (stereo not shown) [ketamine, Ketamine, reference compound], in the assay on WKY rats, the “immobility time in forced swimming test” value is given as “significantly shortened the immobility time”.

Take `CCN(CC)C(=O)c1noc2cc(NC(=O)NCc3ccncc3)ccc12` [Example 50, N,N-Diethyl-6-({[(pyridin-4-yl)methyl]carbamoyl}amino)-1,2-benzoxazole-3-carboxamide]: the EC50 is 0.24 µM at human NAMPT enzyme and 0.45 µM with HEK293A cells.

As for `Cn1nccc1-c1c(-c2ccccc2)nn2cc(NC(=O)NCc3ccncc3)ccc12` [Example 22, N-[3-(1-Methyl-1H-pyrazol-5-yl)-2-phenylpyrazolo[1,5-a]pyridin-6-yl]-N′-[(pyridin-4-yl)methyl]urea], the EC50 at human NAMPT enzyme worked out at 0.08 µM; with HEK293A cells, 0.12 µM.

As for `O=C(NCc1ccncc1)Nc1ccc2oc(-c3ccccc3)nc2c1` [Example 7, N-(2-Phenyl-1,3-benzoxazol-5-yl)-N′-[(pyridin-4-yl)methyl]urea], the values for the EC50 at human NAMPT enzyme and in the assay with HEK293A cells were 0.41 µM and 0.54 µM, respectively.

With `Cc1ccccc1-c1nc2ccc(NC(=O)NCc3ccncc3)cc2o1` [Example 1, N-[2-(2-Methylphenyl)-1,3-benzoxazol-6-yl]-N′-[(pyridin-4-yl)methyl]urea], the EC50 on human NAMPT enzyme was found to be 0.11 µM; in the assay with HEK293A cells, 0.43 µM.

For `N#Cc1c2ccc(NC(=O)NCc3ccncc3)cc2nn1-c1ccccc1` [Example 21, N-(3-Cyano-2-phenyl-2H-indazol-6-yl)-N′-[(pyridin-4-yl)methyl]urea], the values for the EC50 at human NAMPT enzyme and in the assay on HEK293A cells were 0.11 µM and 0.23 µM, respectively.

In the case of `COc1cccc(C2Cc3ccc(NC(=O)NCc4ccncc4)cc3O2)c1` (stereo not shown) [Example 52, N-[2-(3-Methoxyphenyl)-2,3-dihydro-1-benzofuran-6-yl]-N′-[(pyridin-4-yl)methyl]urea], the EC50 on human NAMPT enzyme was determined as 0.08 µM; in the assay with HEK293A cells, 1.24 µM.

Take `O=C(NCc1ccncc1)Nc1ccc2nc(-c3ccccc3)nn2c1` [Example 8, N-(2-Phenyl[1,2,4]triazolo[1,5-a]pyridin-6-yl)-N′-[(pyridin-4-yl)methyl]urea]: the EC50 is 0.08 µM at human NAMPT enzyme and 0.21 µM with HEK293A cells.

In turn, `CCN(CC)C(=O)c1c2ccc(NC(=O)NCc3ccncc3)cc2nn1-c1ccccc1` [Example 18, N,N-Diethyl-2-phenyl-6-({[(pyridin-4-yl)methyl]carbamoyl}amino)-2H-indazole-3-carboxamide] yielded an EC50 at human NAMPT enzyme of 0.05 µM.

As to `CCNC(=O)N1CC(c2ccccc2Cl)Oc2cc(NC(=O)NCc3ccncc3)ccc21` (stereo not shown) [Example 49, 2-(2-Chlorophenyl)-N-ethyl-7-({[(pyridin-4-yl)methyl]carbamoyl}amino)-2,3-dihydro-4H-1,4-benzoxazine-4-carboxamide], the midpoint of the response at human NAMPT enzyme, the EC50, lay at 0.13 µM.

In turn, `CC(=O)N1c2ccc(NC(=O)NCc3ccncc3)cc2CC1c1ccccc1` (stereo not shown) [Example 34, N-(1-Acetyl-2-phenyl-2,3-dihydro-1H-indol-5-yl)-N′-[(pyridin-4-yl)methyl]urea] displayed an EC50 at human NAMPT enzyme of 0.18 µM.

For the compound `CCN(Cc1ccccc1)C(=O)c1noc2cc(NC(=O)NCc3ccncc3)ccc12` [Example 56, N-Benzyl-N-ethyl-6-({[(pyridin-4-yl)methyl]carbamoyl}amino)-1,2-benzoxazole-3-carboxamide], a half-maximal response at human NAMPT enzyme (EC50) required 0.03 µM.

`Cn1c(-c2ccccn2)cc2cc(NC(=O)NCc3ccncc3)ccc21` [Example 39, N-[1-Methyl-2-(pyridin-2-yl)-1H-indol-5-yl]-N′-[(pyridin-4-yl)methyl]urea] had an EC50 on human NAMPT enzyme of 0.53 µM.
